Patent publication US8901129B2, “Methods of facilitating neural cell survival using GDNF family ligand (GFL) mimetics or RET signaling pathway activators” (GeneCode AS, priority 2009, dated 2014)

Columns and labels:
Rat dopaminergic neurons = test: Dopaminergic neuron survival with MPP+ intoxication; type: cell-based; conditions: MPP+ 16 μM, 48 hours
Method: Rat dopaminergic neurons were cultured as described by Schinelli et al., 1988. Briefly pregnant female rats of 15 days gestation were killed by cervical dislocation (Rats Wistar; Janvier) and the fetuses removed from the uterus. The embryonic midbrains were removed and placed in ice-cold medium of Leibovitz (L15; Invitrogen) containing 1% of Penicillin-Streptomycin (PS; Invitrogen) and 1% of bovine serum albumin (BSA; Sigma). Only the ventral portions of the mesencephalic flexure were used for the cell preparations as this is the region of the developing brain rich in dopaminergic neurons.
The midbrains were dissociated by trypsinisation for 20 min at 37° C. (10% of trypsin EDTA 10×; Invitrogen) diluted in PBS without calcium and magnesium. The reaction was stopped by the addition of Dulbecco's modified Eagle's medium (DMEM; Invitrogen) containing DNAase I grade II (0.1 mg/ml; Roche Diagnostic;) and 10% of fetal calf serum (FCS; Invitrogen). Cells were then mechanically dissociated by 3 passages through a 10 ml pipette. Cells were then centrifuged at 180×g for 10 min at room temperature on a layer of BSA (3.5%) in L15 medium. The supernatant was discarded and the cells of pellet were re-suspended in a defined culture medium consisting of Neurobasal (Invitrogen) supplemented with B27 (2%; Invitrogen), L-glutamine (0.2 mM; Invitrogen) and 1% of PS solution. Viable cells were counted in a Neubauer cytometer using the trypan blue exclusion test.
The cells were seeded at a density of 69 000 cells/well in 96 well-plates (wells were pre-coated with poly-L-lysine (10 μg/ml; Sigma)) and were cultured at 37° C. in a humidified air (95%)/CO2 (5%) atmosphere. Half of the medium was changed every 2 days with fresh medium. In these conditions, after 5 days of culture, astrocytes were present in the culture and release growth factor allowing neurons differentiation. Three to five percent of the neuronal cell population were dopaminergic neurons.
On day 6, the medium was removed and fresh medium was added with or without MPP^+ at 16 μM and with or without test substance. After 48 hours of intoxication (day 8 of culture), the cells were fixed with PFA 4%. Dopaminergic neurons were labeled by a monoclonal anti-tyrosine hydroxylase (TH) antibody (Sigma). This antibody labels the neurites and cell bodies of dopaminergic neurons. […] For each condition, 2×10 pictures per well were taken using InCell Analyzer™ 1000 (Amersham Biosciences) with 10× magnification. All the images were taken in the same conditions.
Analysis of the neurite length and number of neurons labeled with anti tyrosine hydroxylase (TH) antibodies with or without MPP+ intoxication was carried out using InCell Analyzer™ 1000 3.2.Workstation software. Dopaminergic neurons and total length neurites were counted on the 10 pictures (12 analyses by culture condition).

RET via GFRα = molecular target: T1, RET via GFRα (UniProt P07949+Q62997); test: RET phosphorylation assay by immunoprecipitation and Western blotting (FIG. 4); type: cell-based; conditions: FIG. 4 lanes; active / inactive
T1 construct: Full-length flag-tagged rat Gfrα1 cDNA; FLAG; expressed in transfected cells; host or cells: αLUC cells: MG87RET murine fibroblasts stably transfected with GFRα1 plasmid, Gal4-Luc and Gal4-Elk
T1 sequence (Q62997 25-430 limits assumed): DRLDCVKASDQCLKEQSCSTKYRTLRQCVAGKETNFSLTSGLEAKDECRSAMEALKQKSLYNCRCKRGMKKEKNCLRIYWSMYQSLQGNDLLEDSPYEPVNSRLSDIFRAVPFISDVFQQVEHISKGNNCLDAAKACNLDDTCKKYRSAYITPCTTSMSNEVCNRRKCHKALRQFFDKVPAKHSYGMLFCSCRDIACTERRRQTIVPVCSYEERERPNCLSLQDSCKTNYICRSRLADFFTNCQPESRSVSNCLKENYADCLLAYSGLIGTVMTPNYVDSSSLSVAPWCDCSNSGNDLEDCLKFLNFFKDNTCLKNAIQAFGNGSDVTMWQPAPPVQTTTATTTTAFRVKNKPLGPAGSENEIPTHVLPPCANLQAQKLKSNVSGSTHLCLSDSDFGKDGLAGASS
T1 sequence (P07949 29-1114): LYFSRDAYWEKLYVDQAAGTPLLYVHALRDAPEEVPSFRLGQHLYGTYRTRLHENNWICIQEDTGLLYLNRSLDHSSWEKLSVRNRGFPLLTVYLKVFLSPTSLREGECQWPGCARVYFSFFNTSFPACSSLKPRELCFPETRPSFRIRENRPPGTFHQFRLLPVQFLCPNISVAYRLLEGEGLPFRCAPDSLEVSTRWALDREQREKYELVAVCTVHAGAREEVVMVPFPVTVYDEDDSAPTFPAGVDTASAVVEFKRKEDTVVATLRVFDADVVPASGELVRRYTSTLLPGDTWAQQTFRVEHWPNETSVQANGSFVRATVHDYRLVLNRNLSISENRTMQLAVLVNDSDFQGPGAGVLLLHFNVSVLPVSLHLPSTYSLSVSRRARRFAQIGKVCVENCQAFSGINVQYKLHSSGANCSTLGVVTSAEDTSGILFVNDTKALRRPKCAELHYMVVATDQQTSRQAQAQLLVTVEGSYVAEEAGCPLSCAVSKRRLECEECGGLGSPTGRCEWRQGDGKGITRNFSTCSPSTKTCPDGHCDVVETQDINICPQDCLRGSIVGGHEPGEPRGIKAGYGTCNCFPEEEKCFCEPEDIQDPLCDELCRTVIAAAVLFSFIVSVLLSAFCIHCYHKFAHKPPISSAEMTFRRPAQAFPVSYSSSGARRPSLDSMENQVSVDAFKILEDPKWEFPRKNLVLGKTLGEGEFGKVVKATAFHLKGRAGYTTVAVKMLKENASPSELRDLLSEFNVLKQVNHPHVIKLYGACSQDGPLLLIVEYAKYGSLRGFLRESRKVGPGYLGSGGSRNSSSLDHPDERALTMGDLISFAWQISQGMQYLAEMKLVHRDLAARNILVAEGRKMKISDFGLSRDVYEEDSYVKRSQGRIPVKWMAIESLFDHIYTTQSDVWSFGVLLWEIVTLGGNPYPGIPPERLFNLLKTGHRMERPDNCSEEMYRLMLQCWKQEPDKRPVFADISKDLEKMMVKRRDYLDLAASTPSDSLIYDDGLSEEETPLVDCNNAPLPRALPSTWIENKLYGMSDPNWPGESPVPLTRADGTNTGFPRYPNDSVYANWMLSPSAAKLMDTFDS
Method: αLUC and NOα cells plated on 35 mm tissue culture dishes were starved for 4 hours in serum-free DMEM and stimulated with 500 ng/ml of PSPN or 100 ng/ml of GDNF (positive control) for 15 min. […] The membranes were washed 3 times for 5 min in TBS-T and incubated in the 1:3000 solution of secondary anti-mouse antibodies conjugated with HRP (DAKO) diluted in TBS-T containing 3% nonfat dry milk for 45 min at room temperature. Membranes were washed with TBS-T for 5×10 min. Stained bands were visualized with ECL reagent (Pierce) using LAS3000 imaging program. […] We used secondary anti-goat antibodies conjugated with HRP (1:1500, DAKO) to detect C-20.

6-OHDA lesioned rats = test: Amphetamine induced rotation asymmetry in 6-OHDA rat model of Parkinson's disease (FIG. 7); type: in vivo
Source text: The objective of this study is to investigate the effect of intrastriatally (i.s.) administered small molecule GDNF mimetics (compounds 13, 16, 319H6 and 292651, structures shown in the description of the Figures, above) in a rat model 6-OHDA of Parkinson's disease. In the sub-acute lesion model used in this study, the lesion of the substantia nigra (SNc) that slowly progresses over weeks is created by injection of 6-OHDA into the proximity of the dopaminergic terminals in the striatum (Kirik-D 1998, Exp. Neurol. 152:259-277). In this model, a portion of the nigrostriatal projection is left intact, which can serve as a substrate for regeneration and functional recovery in response to growth promoting and neuroprotective agents.
(§1) GDNF mimetics compounds, GDNF or vehicle is administered to the striatum at 3 weeks after the exposure to the neurotoxin 6-OHDA. The selective damage to dopaminergic neurons in the SNc, as well as striatal levels of dopamine and its metabolites are evaluated 12 weeks after the injection of 6-OHDA with tyrosine hydroxylase (TH) immunohistochemistry and HPLC, respectively. In addition, the behavioral impairment of rats is evaluated by forelimb asymmetry test (cylinder test), amphetamine induced rotation asymmetry test and Y-maze test for stereotypic spontaneous rotation deficits.
Animals: All animal experiments are carried out according to the National Institute of Health (NIH) guidelines for the care and use of laboratory animals, and approved by the State Provincial Office of Southern Finland. Altogether 108 male Wistar rats, purchased from Charles River, Germany and weighing 220-275 g are used for the experiment. Animals are housed at a standard temperature (22±1° C.) and in a light-controlled environment (lights on from 7 am to 8 pm) with ad libitum access to food and water. Animals are grouped as follows:
In order to generate partial retrograde degeneration into the SNc, 6-OHDA lesioning is carried out according to Sauer and Oertel with modifications (Sauer and Oertel, 1994). Male Wistar rats are anesthetized with 5% isoflurane (in 70% N2O and 30% O2; flow 300 ml/min) and placed in a stereotactic frame. During the operation concentration of anesthetic is reduced to 1-1.5%. The rectal temperature is maintained at 37.0±1.0° C. with a homeothermic blanket system. The right brain hemisphere is exposed through a small craniectomy to the skull. The dura mater is carefully removed with fine forceps and a stereotaxic injection of 6-OHDA (4 μg/μl) is made into the right striatum. A total of 7 μl of 6-OHDA is infused at a speed of 0.5 μl/min and is equally distributed between 4 sites at the following coordinates: AP+1.0, ML+2.8, DV−6.0, −5.5, −5.0 and −4.4 mm. The cannula is left in place for another 5 min before being withdrawn. The hole in the skull is subsequently filled with repair material and the skin is closed and disinfected. The rats are allowed to recover from anesthesia and are carefully monitored for possible post surgical complications. The animals are returned to the home cages with ad libitum access to food and water.
On day 21, rats are re-anesthetized with 5% isoflurane (in 70% N2O and 30% O2; flow 300 ml/min) and placed in a stereotactic frame. During the operation concentration of anesthetic is reduced to 1-1.5%. The rectal temperature is maintained at 37.0±1.0° C. with a homeothermic blanket system. The right brain hemisphere is exposed through a small craniectomy to the skull. A stereotaxic injection of the test compound, GDNF or vehicle is made into the right striatum. Each dosing solution is infused at a speed of 1 μl/min and is equally distributed between 4 sites at the following coordinates: AP+1.0, ML+2.8, DV−6.0, −5.5, −5.0 and −4.4 mm. The cannula is left in place for another 5 min before being withdrawn. The hole in the skull is subsequently filled with repair material and the skin is closed and disinfected. […]

6-OHDA-treated rats = test: Side effects / toxic effects after intrastriatal injection in 6-OHDA-treated rats; type: in vivo; conditions: injected intrastriatally
Method: as §1
On day 21, rats are re-anesthetized with 5% isoflurane (in 70% N2O and 30% O2; flow 300 ml/min) and placed in a stereotactic frame. During the operation concentration of anesthetic is reduced to 1-1.5%. The rectal temperature is maintained at 37.0±1.0° C. with a homeothermic blanket system. The right brain hemisphere is exposed through a small craniectomy to the skull. A stereotaxic injection of the test compound, GDNF or vehicle is made into the right striatum. Each dosing solution is infused at a speed of 1 μl/min and is equally distributed between 4 sites at the following coordinates: AP+1.0, ML+2.8, DV−6.0, −5.5, −5.0 and −4.4 mm. The cannula is left in place for another 5 min before being withdrawn. The hole in the skull is subsequently filled with repair material and the skin is closed and disinfected. The rats are allowed to recover from anesthesia and are carefully monitored for possible post surgical complications. The animals are returned to the home cages with ad libitum access to food and water.
Animals are monitored daily by laboratory personnel. […] Definitions of acceptable endpoints include: no spontaneous movements and inability to drink or eat in 24-h observation period, massive bleeding, spontaneous inflammation, missing anatomy, swelling or tumors larger than 20 mm, and inability to right itself in 30 sec period.

CCN(CC)S(=O)(=O)c1ccc(OC)c(N2CCN(C(=O)c3ccc(F)cc3C(F)(F)F)CC2)c1 [319H6]
% Cytoprotection vs controls (Rat dopaminergic neurons; 0.1 μM): 9% | % TH+ Neurons (Rat dopaminergic neurons; 0.1 μM): 59% | % Cytoprotection vs controls (Rat dopaminergic neurons; 1 μM): 33% | % TH+ Neurons (Rat dopaminergic neurons; 1 μM): 70% | % Cytoprotection vs controls (Rat dopaminergic neurons; 10 μM): 36% | % TH+ Neurons (Rat dopaminergic neurons; 10 μM): 71%

CCN(CC)CCCC(C)Nc1ccnc2cc(Cl)ccc12 (stereo not drawn) [chloroquine]
RET activation (phosphotyrosine Western blot of immunoprecipitated RET) (RET via GFRα): inactive

CCN(CC)CCCCCCNc1ccnc2cc(Cl)ccc12 [compound 108]
RET activation (phosphotyrosine Western blot of immunoprecipitated RET) (RET via GFRα): inactive

OCCNCCNc1c2ccccc2nc2cc(Cl)ccc12 [compound 13005]
RET activation (phosphotyrosine Western blot of immunoprecipitated RET) (RET via GFRα): inactive

CC(CCCN(C)Cc1ccccc1)Nc1ccnc2cc(Cl)ccc12 (stereo not drawn) [compound 143511]
RET activation (phosphotyrosine Western blot of immunoprecipitated RET) (RET via GFRα): active

CCN(CC)CCCC(C)Nc1cc(/C=C/c2ccc(Cl)cc2)nc2ccc(N(C)C)cc12 (stereo not drawn) [compound 219902]
RET activation (phosphotyrosine Western blot of immunoprecipitated RET) (RET via GFRα): active

CCN(CC)CCCC(C)Nc1cc(/C=C/c2ccc(Cl)cc2)nc2cc(N(C)C)ccc12 (stereo not drawn) [compound 292651]
amphetamine-induced ipsilateral rotation (6-OHDA lesioned rats; 1 ug intrastriatal, 3 weeks after 6-OHDA, measured 6 weeks after 6-OHDA): reduced amphetamine-induced ipsilateral rotation | amphetamine-induced ipsilateral rotation of lesioned rats (6-OHDA lesioned rats; injected into striatum 3 weeks after 6-OHDA, dose not stated): significantly reduce | RET activation (phosphotyrosine Western blot of immunoprecipitated RET) (RET via GFRα): active | toxic effects in behavioral assays (6-OHDA-treated rats): did not cause toxic effects

Clc1ccc2c(NCCCCCCNc3ccnc4cc(Cl)ccc34)ccnc2c1 [compound 349051]
RET activation (phosphotyrosine Western blot of immunoprecipitated RET) (RET via GFRα): inactive

B1: BDNF: native brain-derived neurotrophic factor, comparator in the neuron survival assay (protein, UniProt P23560 19-247, looked up)
Neurotrophic factor BDNF …: APMKEANIRGQGGLAYPGVRTHGTLESVNGPKAGSRGLTSLADTFEHVIEELLDEDQKVRPNEENNKDADLYTSRVMLSSQVPLEPPLLFLLEEYKNYLDAANMSMRVRRHSDPARRGELSVCDSISEWVTAADKKTAVDMSGGTVTVLEKVPVSKGQLKQYFYETKCNPMGYTKEGCRGIDKRHWNSQCRTTQSYVRALTMDSKKRIGWRFIRIDTSCVCTLTIKRGR
% Cytoprotection vs controls (Rat dopaminergic neurons; 10 ng/mL): 49% | % TH+ Neurons (Rat dopaminergic neurons; 10 ng/mL): 77%
